Reference: article PMC5108032, “Discovery of a Quinoline-4-carboxamide Derivative with a Novel Mechanism of Action, Multistage Antimalarial Activity, and Potent in Vivo Efficacy” (Journal of Medicinal Chemistry, 2016)
pEC50: −log10 of the molar value.

Tested on: Plasmodium falciparum strain 3D7
Experiment: Plasmodium falciparum screening, SYBR green growth inhibition
Format: cell-based
Details: 3D7, supplementary csv, read-out: Pf (3D7) EC50
Protocol: Plasmodium falciparum screening
Assays against P. falciparum were conducted as previously described.1 Cultures of the widely-used malaria reference strain of chloroquine-sensitive Plasmodium falciparum strain 3D7 were maintained in a 5% suspension of human red blood cells (obtained from East of Scotland Blood Transfusion Service, Ninewells Hospital, Dundee) cultured in RPMI 1640 medium (pH 7.3) supplemented with 0.5% Albumax II (Gibco Life Technologies, San Diego, CA), 12 mM sodium bicarbonate, 0.2 mM hypoxanthine and 20 mg/L gentamicin at 37°C, in a humidified atmosphere of 1% O 2, 3% CO2 with a balance of nitrogen. Growth inhibition was quantified using a fluorescence assay utilising the binding of SYBR green to double stranded DNA, which emits a fluorescent signal at 528 nm after excitation at 485nm.2 Mefloquine (potency range 30-60 nM) was used as a drug control to monitor the quality of the assay (Z’ = 0.6 to 0.8, Signal to background >3, where Z’ is a measure of the discrimination between the positive and negative controls on a screen plate). A 96-well [3H]-Hypoxanthine incorporation assay was also developed as a secondary assay in order to validate compounds from the initial screen in an orthogonal platform.3 Compound bioactivity from both assays was expressed as […]
P. falciparum (panel of resistant strains) in vitro assay. (Swiss TPH)
All Plasmodium strains were cultured according to Trager and Jensen and are described at www.beiresources.org (resistant strains: K1, W2, 7G8, TM90C2A, D6 and V1/S, sensitive strain:
NF54). EC50 values were determined in vitro by measuring incorporation of the nucleic acid precursor […]
Mammalian Cell Growth Inhibition assay
A counter-screen against normal diploid human fibroblasts (MRC-5 cell line) was carried out to exclude non-selective, and toxic compounds. The assay was essentially carried out as described previously.4 Cells were plated and incubated overnight to allow them to adhere as monolayers. A working stock of each test compound was transferred to an intermediate 384-well plate and pre-diluted with minimum essential media (MEM). The pre-diluted stocks were then transferred onto the cell monolayers, and the plates were incubated for 68 h. Resazurin, to a final concentration of 50 μM, was added to each well, after which plates were incubated for a further 3 h and measured for fluorescence (λex=528 nm, λem=590 nm)
In vitro Cell Assay Data Analysis.
All data was processed using IDBS ActivityBase® raw data was converted into per cent inhibition through linear regression by setting the high inhibition control as 100% and the no inhibition control as 0%. Quality control criteria for passing plates were as follows: Z’> 0.5, S:B> 3, %CV(no inhibition < 15 . The formula used to calculate Z’ is 1 3× (St D e v _ hi gh + St D e v _ low) . […]
All EC50 Curve fitting was undertaken using XLFit version 4.2 using Model 205 with the following 4 parametric equation: y = A + B A A + ($-&) ,where A=% inhibition at bottom, B=% […]
(§1) inhibition at top, C= EC50, D= slope, x= inhibitor concentration and y= % inhibition. […]
(§2) reach 100% of inhibition, B was fixed to 100 only when at least 50% of inhibition was reached.
(§3) Plasmodium falciparum late stage (IV-V) gametocyte high content imaging assay Plasmodium falciparum NF54-pfs16-LUC-GFP stage IV-V Gametocytes were produced as described previously.5 Compounds were solubilized in DMSO and serially diluted in three concentrations per log standard curves in DM SO. One µl of compound was subsequently diluted in 25µl of water (4% DMSO) and 5µl transferred into the base of 384 well PerkinElmer CellCarrier plates. Forty-five µl of stage IV-V gametocytes (10%P in 0.1%H) were added to the imaging plates which were in turn sealed with a gas permeable membrane and incubated at 37°C, 5% CO 2, 5% O2, 90% N2 and 60% humidity […]
Post incubation, 5µl of MitoTracker® Red CM -H2Xros (MTR) solution (0.66ug/ml) was added to all wells and the plates incubated for a further 16hours. […]

Question: With O=C(NCCN1CCCC1)c1cc(NCCCCN2CCOCC2)nc2ccc(Cl)cc12 [Compound 27, 6-Chloro-2-((4-morpholinobutyl)amino)-N-(2-(pyrrolidin-1-yl)ethyl)quinoline-4-carboxamide] as the compound, how does the pEC50 read?
Answer: 8.42

Question: With O=C(NCCN1CCCC1)c1cc(-c2ccc(S(=O)(=O)N3CCOCC3)cc2)nc2ccc(F)cc12 [Compound 38, 6-Fluoro-2-(4-(morpholinosulfonyl)phenyl)-N-(2-(pyrrolidin-1-yl)ethyl)quinoline-4-carboxamide] as the compound, how does the pEC50 read?
Answer: 8.36

Question: With O=C(NCCN1CCCC1)c1cc(-c2ccc(CN3CCOCC3)cc2F)nc2ccc(F)cc12 [Compound 41] as the compound, how does the pEC50 read?
Answer: 8.72

Tested on: not listed separately
Experiment: Intrinsic clearance (Cli) in rat liver microsomes
Format: in vitro ADME
Details: rat liver microsome
Text: as §1, §2, §3
Post incubation, 5µl of MitoTracker® Red CM -H2Xros (MTR) solution (0.66ug/ml) was added to all wells and the plates incubated for a further 16hours. The assay plates were then imaged and the number of viable gametocytes determined for test compounds plus 0.4%DMSO and 5µM Puromycin.
(0.4%DMSO) control values. Percent inhibition was plotted against log compound concentration using a 4 parameter log dose, non-linear regression analysis, with sigmoidal dose response (variable slope) curve fit using Prizm 4.0. IC50 values were obtained from this curve fit. The compound testing was performed in duplicate point within two separate experiments.
Plasmodium berghei ookinete development assay
Assay was performed as previously reported.6 Briefly blood containing P. berghei CTRPp-GFP gametocytes was rapidly harvested from infected mice and introduced to test compounds pre-diluted in ookinete medium (to induce gamete formation and support ookinete development) in 96-well plates. Plates were incubated in the dark at 21°C for 22 hr before GFP fluorescence intensity measured in a plate reader. % inhibition of ookinete formation was calculated with reference to the fluorescence intensity values of a positive control (20 µM cycloheximide) and a solvent-only negative control (DMSO). All assays were performed in triplicate independent experiments and EC50 values calculated in Graphpad Prism.
The aqueous solubility of the test compounds was measured using laser nephelometry, as described previously.7 Compounds were subject to serial dilution from 10 mg/mL to 0.5 mg/mL in DMSO. An aliquot was then mixed with MilliQ water to obtain an aqueous dilution plate with a final concentration range of 100 – 5 μg/mL, with a final DMSO concentration of 1.0%. Triplicate aliquots were transferred to a flat bottomed polystyrene plate which was immediately read on the NEPHELOstar (BMG Lab Technologies). The amount of laser scatter caused by insoluble particulates (relative nephelometry units, RNU) was plotted against compound concentration using a segmental regression fit, with the point of inflection being quoted as the compounds aqueous solubility (μg/mL; […]
Intrinsic Clearance (Cli) experiments
The procedure was carried out as reported previously.7 Test compound (0.5 µM) was incubated with female CD1 mouse, male sprague-dawley rat or pooled human mixed gender liver microsomes (Xenotech LLC TM; 0.5 mg/mL 50 mM potassium phosphate buffer, pH 7.4) and the reaction initiated […]
by the addition of excess NADPH (8 mg/mL 50 mM potassium phosphate buffer, pH 7.4). […]

Question: With O=C(NCCN1CCCC1)c1cc(NCCCN2CCOCC2)nc2ccc(F)cc12 [Compound 25, 6-Fluoro-2-((3-morpholinopropyl)amino)-N-(2-(pyrrolidin-1-yl)ethyl)quinoline-4-carboxamide] as the compound, how does the “RLM Cli” value read?
Answer: <0.5 mL min^–1 g^–1

Question: With O=C(NCCN1CCCC1)c1cc(NCCC2CCOCC2)nc2ccc(Cl)cc12 [Compound 30, 6-Chloro-N-(2-(pyrrolidin-1-yl)ethyl)-2-((2-(tetrahydro-2H-pyran-4-yl)ethyl)amino)quinoline-4-carboxamide] as the compound, how does the “RLM Cli” value read?
Answer: 0.8 mL min^–1 g^–1

Question: With O=C(NCCN1CCCC1)c1cc(-c2ccc(CN3CCOCC3)cc2F)nc2ccc(F)cc12 [Compound 41] as the compound, how does the “RLM Cli” value read?
Answer: <0.5 mL min^–1 g^–1
